# Assays:
# [1] = tested on: Staphylococcus epidermidis; experiment: Bactericidal activity against methicillin-resistant Staphylococcus epidermidis isolate 422/10 after 24 hrs; format: functional; conditions: isolate 422/10, 24 h, read-out: MBC99.9
# [2] = tested on: Staphylococcus aureus; experiment: Antimicrobial activity against Staphylococcus aureus ATCC 25923 after 18 hrs by twofold serial broth dilution method; format: functional; conditions: ATCC 25923, 18 h
# [3] = tested on: Escherichia coli; experiment: Bactericidal activity against Escherichia coli NCTC 8196 after 24 hrs; format: functional; conditions: NCTC 8196, 24 h, read-out: MBC99.9
# [4] = tested on: Escherichia coli; experiment: Bactericidal activity against Escherichia coli ATCC 10538 after 24 hrs; format: functional; conditions: ATCC 10538, 24 h, read-out: MBC99.9
# [5] = tested on: Staphylococcus epidermidis; experiment: Bactericidal activity against methicillin-resistant Staphylococcus epidermidis isolate 454/11 after 24 hrs; format: functional; conditions: isolate 454/11, 24 h, read-out: MBC99.9
# [6] = tested on: Escherichia coli; experiment: Bactericidal activity against Escherichia coli ATCC 25922 after 24 hrs; format: functional; conditions: ATCC 25922, 24 h, read-out: MBC99.9
# [7] = tested on: Escherichia coli; experiment: Antimicrobial activity against Escherichia coli ATCC 10538 after 18 hrs by twofold serial broth dilution method; format: functional; conditions: ATCC 10538, 18 h
# [8] = tested on: Staphylococcus aureus; experiment: Bactericidal activity against Staphylococcus aureus ATCC 25923 after 24 hrs; format: functional; conditions: ATCC 25923, 24 h, read-out: MBC99.9
# [9] = tested on: Staphylococcus epidermidis; experiment: Bactericidal activity against methicillin-resistant Staphylococcus epidermidis isolate 409/10 after 24 hrs; format: functional; conditions: isolate 409/10, 24 h, read-out: MBC99.9
# [10] = tested on: Staphylococcus epidermidis; experiment: Antimicrobial activity against methicillin-resistant Staphylococcus epidermidis isolate 459/11 after 18 hrs by twofold serial broth dilution method; format: functional; conditions: isolate 459/11, 18 h
# [11] = tested on: Staphylococcus epidermidis; experiment: Antimicrobial activity against methicillin-resistant Staphylococcus epidermidis isolate 424/10 after 18 hrs by twofold serial broth dilution method; format: functional; conditions: isolate 424/10, 18 h
# [12] = tested on: Staphylococcus epidermidis; experiment: Antimicrobial activity against methicillin-resistant Staphylococcus epidermidis isolate 422/10 after 18 hrs by twofold serial broth dilution method; format: functional; conditions: isolate 422/10, 18 h
# [13] = tested on: Staphylococcus epidermidis; experiment: Bactericidal activity against methicillin-resistant Staphylococcus epidermidis isolate 405/10 after 24 hrs; format: functional; conditions: isolate 405/10, 24 h, read-out: MBC99.9
# [14] = tested on: Bacillus anthracis; experiment: Antimicrobial activity against Bacillus anthracis 34F2 after 18 hrs by twofold serial broth dilution method; format: functional; conditions: 34F2, 18 h
# [15] = tested on: Staphylococcus epidermidis; experiment: Bactericidal activity against methicillin-resistant Staphylococcus epidermidis isolate 424/10 after 24 hrs; format: functional; conditions: isolate 424/10, 24 h, read-out: MBC99.9
# [16] = tested on: Pseudomonas aeruginosa; experiment: Antimicrobial activity against Pseudomonas aeruginosa NCTC 6749 after 18 hrs by twofold serial broth dilution method; format: functional; conditions: NCTC 6749, 18 h
# [17] = tested on: Staphylococcus epidermidis; experiment: Antimicrobial activity against methicillin-resistant Staphylococcus epidermidis isolate 455/11 after 18 hrs by twofold serial broth dilution method; format: functional; conditions: isolate 455/11, 18 h
# [18] = tested on: Staphylococcus epidermidis; experiment: Antimicrobial activity against methicillin-resistant Staphylococcus epidermidis isolate 469/11 after 18 hrs by twofold serial broth dilution method; format: functional; conditions: isolate 469/11, 18 h
# [19] = tested on: Staphylococcus epidermidis; experiment: Antimicrobial activity against Staphylococcus epidermidis ATCC 35984 after 18 hrs by twofold serial broth dilution method; format: functional; conditions: ATCC 35984, 18 h
# [20] = tested on: Bacillus subtilis; experiment: Genotoxicity in rec-positive Bacillus subtilis H17 at 2 ug/9 mm disc after 24 hrs by disc diffusion method; format: toxicity, organism-based
# [21] = tested on: Staphylococcus aureus; experiment: Antimicrobial activity against Staphylococcus aureus […] after 18 hrs by twofold serial broth dilution method; format: functional
# [22] = tested on: Staphylococcus epidermidis; experiment: Bactericidal activity against methicillin-resistant Staphylococcus epidermidis isolate 469/11 after 24 hrs; format: functional; conditions: isolate 469/11, 24 h, read-out: MBC99.9
# [23] = tested on: Staphylococcus epidermidis; experiment: Antimicrobial activity against methicillin-resistant Staphylococcus epidermidis isolate 404/10 after 18 hrs by twofold serial broth dilution method; format: functional; conditions: isolate 404/10, 18 h
# [24] = tested on: Staphylococcus epidermidis; experiment: Antimicrobial activity against methicillin-resistant Staphylococcus epidermidis isolate 470/11 after 18 hrs by twofold serial broth dilution method; format: functional; conditions: isolate 470/11, 18 h
# [25] = tested on: Staphylococcus epidermidis; experiment: Antimicrobial activity against methicillin-resistant Staphylococcus epidermidis isolate 461/11 after 18 hrs by twofold serial broth dilution method; format: functional; conditions: isolate 461/11, 18 h
# [26] = tested on: Staphylococcus epidermidis; experiment: Bactericidal activity against methicillin-resistant Staphylococcus epidermidis isolate 455/11 after 24 hrs; format: functional; conditions: isolate 455/11, 24 h, read-out: MBC99.9
# [27] = tested on: Staphylococcus epidermidis; experiment: Antimicrobial activity against methicillin-resistant Staphylococcus epidermidis isolate 454/11 after 18 hrs by twofold serial broth dilution method; format: functional; conditions: isolate 454/11, 18 h
# [28] = tested on: Pseudomonas aeruginosa; experiment: Antimicrobial activity against Pseudomonas aeruginosa ATCC 15442 after 18 hrs by twofold serial broth dilution method; format: functional; conditions: ATCC 15442, 18 h
# [29] = tested on: Staphylococcus epidermidis; experiment: Antimicrobial activity against methicillin-resistant Staphylococcus epidermidis isolate 457/11 after 18 hrs by twofold serial broth dilution method; format: functional; conditions: isolate 457/11, 18 h
# [30] = tested on: Staphylococcus aureus; experiment: Bactericidal activity against Staphylococcus aureus ATCC 6538 after 24 hrs; format: functional; conditions: ATCC 6538, 24 h, read-out: MBC99.9
# [31] = tested on: Staphylococcus epidermidis; experiment: Antimicrobial activity against methicillin-resistant Staphylococcus epidermidis isolate 403/10 after 18 hrs by twofold serial broth dilution method; format: functional; conditions: isolate 403/10, 18 h
# [32] = tested on: Staphylococcus epidermidis; experiment: Bactericidal activity against methicillin-resistant Staphylococcus epidermidis isolate 460/11 after 24 hrs; format: functional; conditions: isolate 460/11, 24 h, read-out: MBC99.9
# [33] = tested on: Staphylococcus epidermidis; experiment: Antimicrobial activity against methicillin-resistant Staphylococcus epidermidis isolate 409/10 after 18 hrs by twofold serial broth dilution method; format: functional; conditions: isolate 409/10, 18 h
# [34] = tested on: Staphylococcus aureus; experiment: Antimicrobial activity against Staphylococcus aureus ATCC 6538 after 18 hrs by twofold serial broth dilution method; format: functional; conditions: ATCC 6538, 18 h
# [35] = tested on: Pseudomonas aeruginosa; experiment: Bactericidal activity against Pseudomonas aeruginosa ATCC 27853 after 24 hrs; format: functional; conditions: ATCC 27853, 24 h, read-out: MBC99.9
# [36] = tested on: Staphylococcus aureus; experiment: Bactericidal activity against Staphylococcus aureus […] after 24 hrs; format: functional; conditions: read-out: MBC99.9
# [37] = tested on: Bacillus subtilis; experiment: Genotoxicity in rec-negative Bacillus subtilis M45 at 2 ug/9 mm disc after 24 hrs by disc diffusion method; format: toxicity, organism-based
# [38] = tested on: Staphylococcus epidermidis; experiment: Bactericidal activity against Staphylococcus epidermidis ATCC 35984 after 24 hrs; format: functional; conditions: ATCC 35984, 24 h, read-out: MBC99.9
# [39] = tested on: Staphylococcus epidermidis; experiment: Bactericidal activity against methicillin-resistant Staphylococcus epidermidis isolate 403/10 after 24 hrs; format: functional; conditions: isolate 403/10, 24 h, read-out: MBC99.9
# [40] = tested on: Escherichia coli; experiment: Antimicrobial activity against Escherichia coli NCTC 8196 after 18 hrs by twofold serial broth dilution method; format: functional; conditions: NCTC 8196, 18 h
# [41] = tested on: Staphylococcus epidermidis; experiment: Antimicrobial activity against methicillin-resistant Staphylococcus epidermidis isolate 405/10 after 18 hrs by twofold serial broth dilution method; format: functional; conditions: isolate 405/10, 18 h
# [42] = tested on: Pseudomonas aeruginosa; experiment: Bactericidal activity against Pseudomonas aeruginosa ATCC 15442 after 24 hrs; format: functional; conditions: ATCC 15442, 24 h, read-out: MBC99.9
# [43] = tested on: Staphylococcus epidermidis; experiment: Bactericidal activity against methicillin-resistant Staphylococcus epidermidis isolate 404/10 after 24 hrs; format: functional; conditions: isolate 404/10, 24 h, read-out: MBC99.9
structure (smiles),measurement,setting,value
CCCCN(CCCC)C(=O)[C@H](CC)[C@H]1CC[C@H](C)[C@H]([C@@H](C)[C@H](O)[C@H](C)C(=O)[C@H](CC)[C@H]2O[C@]3(C=C[C@@H](O)[C@]4(CC[C@@](C)([C@H]5CC[C@](O)(CC)[C@H](C)O5)O4)O3)[C@H](C)C[C@@H]2C)O1,MBC,[1],256 µg/mL
same,MIC,[2],8 µg/mL
same,MBC,[3],> 256 µg/mL
same,MBC,[4],> 256 µg/mL
same,MBC,[5],128 µg/mL
same,MBC,[6],> 256 µg/mL
same,MIC,[7],> 256 µg/mL
same,MBC,[8],256 µg/mL
same,MBC,[9],> 256 µg/mL
same,MIC,[10],4 µg/mL
same,MIC,[11],8 µg/mL
same,MIC,[12],8 µg/mL
same,MBC,[13],128 µg/mL
same,MIC,[14],64 µg/mL
same,MBC,[15],256 µg/mL
same,MIC,[16],> 256 µg/mL
same,MIC,[17],16 µg/mL
same,MIC,[18],8 µg/mL
same,MIC,[19],8 µg/mL
same,diameter of the inhibition zone (DIZ),[20],29 mm
same,MIC,[21],8 µg/mL
same,MBC,[22],> 256 µg/mL
same,MIC,[23],8 µg/mL
same,MIC,[24],8 µg/mL
same,MIC,[25],8 µg/mL
same,MBC,[26],256 µg/mL
same,MIC,[27],4 µg/mL
same,MIC,[28],> 256 µg/mL
same,MIC,[29],4 µg/mL
same,MBC,[30],256 µg/mL
same,MIC,[31],8 µg/mL
same,MBC,[32],> 256 µg/mL
same,MIC,[33],16 µg/mL
same,MIC,[34],8 µg/mL
same,MBC,[35],> 256 µg/mL
same,MBC,[36],> 256 µg/mL
same,diameter of the inhibition zone (DIZ),[37],30 mm
same,MBC,[38],> 256 µg/mL
same,MBC,[39],256 µg/mL
same,MIC,[40],> 256 µg/mL
same,MIC,[41],4 µg/mL
same,MBC,[42],> 256 µg/mL
same,MBC,[43],> 256 µg/mL

# — ChEMBL document CHEMBL3400015, “Tertiary amides of Salinomycin: A new group of antibacterial agents against Bacillus anthracis and methicillin-resistant Staphylococcus epidermidis” (Bioorg Med Chem Lett, 2015)
